Measured values taken from patent US20260015350A1, “AZAQUINAZOLINE PAN-KRAS INHIBITORS” (Mirati Therapeutics, Inc., priority 2022, published 2026).

Columns and labels:
[1] = molecular target: T1, KRas^G12D (Homo sapiens, UniProt P01116, G12D); assay: KRas binding assay (TR-FRET tracer displacement), KRas G12D
T1 construct: Biotinylated KRas (corresponding to amino acids 1-169, produced at Accelegan Inc.); biotin (biotinylated); purchased Accelegan Inc

[2] = molecular target: T2, KRas^G12R (Homo sapiens, UniProt P01116, G12R); assay: KRas binding assay (TR-FRET tracer displacement), KRas G12R
T2 construct: Biotinylated KRas (corresponding to amino acids 1-169, produced at Accelegan Inc.); biotin (biotinylated); purchased Accelegan Inc
T2 sequence (P01116 1-169 isoform P01116-2 G12R): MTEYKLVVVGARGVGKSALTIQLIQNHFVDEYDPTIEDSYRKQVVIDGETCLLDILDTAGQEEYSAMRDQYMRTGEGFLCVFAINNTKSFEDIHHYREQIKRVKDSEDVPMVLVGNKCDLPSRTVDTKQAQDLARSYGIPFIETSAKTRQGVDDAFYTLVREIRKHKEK

[3] = molecular target: T3, KRas^G12V (Homo sapiens, UniProt P01116, G12V); assay: KRas binding assay (TR-FRET tracer displacement), KRas G12V
T3 construct: Biotinylated KRas (corresponding to amino acids 1-169, produced at Accelegan Inc.); biotin (biotinylated); purchased Accelegan Inc
T3 sequence (P01116 1-169 isoform P01116-2 G12V): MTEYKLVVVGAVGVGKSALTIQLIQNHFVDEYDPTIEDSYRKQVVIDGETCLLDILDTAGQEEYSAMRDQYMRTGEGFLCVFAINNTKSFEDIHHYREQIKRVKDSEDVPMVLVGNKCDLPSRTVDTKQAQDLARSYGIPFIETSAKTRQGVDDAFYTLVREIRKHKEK

[4] = system: KRas-mediated phosphorylation of ERK in MKN1 cells; assay: Inhibition of KRas-mediated phosphorylation of ERK (Cisbio HTRF pERK), MKN1 cells; type: cell-based; conditions: Homo sapiens, MKN-1
Summary of the method: (§1)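 Seeding density was 6,000 cells/well; medium RPMI, 10% FBS. Read-out by homogeneous time-resolved fluorescence (pERK) after 4 hours covered at room temperature.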

[5] = system: KRas-mediated phosphorylation of ERK in PSN1 cells; assay: Inhibition of KRas-mediated phosphorylation of ERK (Cisbio HTRF pERK), PSN1 cells; type: cell-based; conditions: Homo sapiens
Summary of the method: as §1

[6] = system: KRas-mediated phosphorylation of ERK in AsPC-1 cells; assay: Inhibition of KRas-mediated phosphorylation of ERK (Cisbio HTRF pERK), AsPC-1 cells; type: cell-based; conditions: Homo sapiens, ASPC1, AsPC-1 cells; HTRF pERK
Summary of the method: (§2)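 6,000 cells/well; cpd 10 uM top, 3-fold x10, 0.8% DMSO final; 3 hr incubation; Min ctrl Trametinib 0.2 uM; lysis 40 min 4° C shaking; d2 + Cryptate Ab mix, 2 hr RT; HTRF read.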

[7] = system: KRas-mediated phosphorylation of ERK in H727 cells; assay: Inhibition of KRas-mediated phosphorylation of ERK (Cisbio HTRF pERK), H727 cells; type: cell-based; conditions: Homo sapiens, NCI-H727, H727 cells; HTRF pERK
Summary of the method: as §2

[8] = system: KRas-mediated phosphorylation of ERK in A549 cells; assay: Inhibition of KRas-mediated phosphorylation of ERK (Cisbio HTRF pERK), A549 cells; type: cell-based; conditions: Homo sapiens, HTRF pERK
Summary of the method: (§3)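 Cells were seeded at 6,000 per well and treated for 3 hrs with compound in a 10-dose, 3-fold series from 10 uM (0.8% final DMSO), with 0.2 uM Trametinib as Min control. Lysates made at 4° C over 40 mins were incubated 2 hrs at room temperature with d2- and Cryptate-labelled antibodies, then read by HTRF.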

[9] = system: KRas-mediated phosphorylation of ERK in H460 cells; assay: Inhibition of KRas-mediated phosphorylation of ERK (Cisbio HTRF pERK), H460 cells; type: cell-based; conditions: Homo sapiens, NCI-H460, HTRF pERK
Summary of the method: as §2

[10] = system: KRas-mediated phosphorylation of ERK in HCT116 cells; assay: Inhibition of KRas-mediated phosphorylation of ERK (Cisbio HTRF pERK), HCT116 cells; type: cell-based; conditions: Homo sapiens, HCT-116, HTRF pERK
Summary of the method: as §3

[11] = system: KRas-mediated phosphorylation of ERK in H358 cells; assay: Inhibition of KRas-mediated phosphorylation of ERK (Cisbio HTRF pERK), H358 cells; type: cell-based; conditions: Homo sapiens, NCI-H358, HTRF pERK
Summary of the method: as §2

T1 sequence (P01116 1-169 isoform P01116-2 G12D): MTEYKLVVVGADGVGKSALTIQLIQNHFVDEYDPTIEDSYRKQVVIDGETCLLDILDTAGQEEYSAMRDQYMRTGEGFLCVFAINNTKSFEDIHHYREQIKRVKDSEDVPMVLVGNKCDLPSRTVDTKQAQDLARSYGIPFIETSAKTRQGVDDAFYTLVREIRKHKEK

| Structure (SMILES) | IC50 [1] | IC50 [2] | IC50 [3] | IC50 [4] | IC50 [5] | IC50 [6] | IC50 [7] | IC50 [8] | IC50 [9] | IC50 [10] | IC50 [11] |
| --- | --- | --- | --- | --- | --- | --- | --- | --- | --- | --- | --- |
| CCc1c(F)ccc2cc(O)cc(-c3ncc4c(N5CC6CCC(C5)C6C(=O)N(C)C)nc(OC[C@@]56CCCN5C[C@H](F)C6)nc4c3F)c12 (stereo partly drawn) [Example 858, (1R,5S,8S)-3-(7-(8-ethyl-7-fluoro-3-hydroxynaphthalen-1-yl)-8-fluoro-2-(((2R,7aS)-2-fluorotetrahydro-1H-pyrrolizin-7a(5H)-yl)methoxy)pyrido[4,3-d]pyrimidin-4-yl)-N,N-dimethyl-3-azabicyclo[3.2.1]octane-8-carboxamide] | 6 nM | 10 nM | 7 nM | 3 nM | > 10000 nM | 138 nM | 375 nM | 19 nM | 7 nM | 21 nM | 43 nM |
| CCc1c(F)ccc2cc(O)cc(-c3ncc4c(N5C[C@H]6CC[C@@](C(=O)NC)(C5)C6(F)F)nc(OC[C@@]56CCCN5C[C@H](F)C6)nc4c3F)c12 [Example 907, (1S,5R)-3-(7-(8-ethyl-7-fluoro-3-hydroxynaphthalen-1-yl)-8-fluoro-2-(((2R,7aS)-2-fluorotetrahydro-1H-pyrrolizin-7a(5H)-yl)methoxy)pyrido[4,3-d]pyrimidin-4-yl)-8,8-difluoro-N-methyl-3-azabicyclo[3.2.1]octane-1-carboxamide] | 88 nM | 18 nM | 23 nM | 137 nM | > 10000 nM | 2040 nM | 922 nM | 827 nM | 590 nM | 1580 nM | 325 nM |
| CCc1c(F)ccc2cc3[nH]ncc3c(-c3ncc4c(N5C[C@@H]6C[C@H](C5)[C@H](O)C6)nc(OC[C@@]56CCCN5C[C@H](F)C6)nc4c3F)c12 [Example 825, (1R,5R,6R)-3-(7-(5-ethyl-6-fluoro-1H-benzo[f]indazol-4-yl)-8-fluoro-2-(((2R,7aS)-2-fluorotetrahydro-1H-pyrrolizin-7a(5H)-yl)methoxy)pyrido[4,3-d]pyrimidin-4-yl)-3-azabicyclo[3.2.1]octan-6-ol] | 6 nM | 3 nM | < 2 nM | 36 nM | 5920 nM | 180 nM | 56 nM | 83 nM | 98 nM | 369 nM | 50 nM |
| CCc1c(F)ccc2cc(O)cc(-c3ncc4c(N5CC6CCC(CO)(C5)C6(F)F)nc(OC[C@@]56CCCN5C[C@H](F)C6)nc4c3F)c12 (stereo partly drawn) [Example 901, 4-(4-(8,8-difluoro-1-(hydroxymethyl)-3-azabicyclo[3.2.1]octan-3-yl)-8-fluoro-2-(((2R,7aS)-2-fluorotetrahydro-1H-pyrrolizin-7a(5H)-yl)methoxy)pyrido[4,3-d]pyrimidin-7-yl)-5-ethyl-6-fluoronaphthalen-2-ol] | 99 nM | 20 nM | 60 nM | 19 nM | > 10000 nM | 2450 nM | 2420 nM | 873 nM | 368 nM | 1400 nM | 623 nM |
| CCc1c(F)ccc2cc(O)cc(-c3ncc4c(N5CCC[C@@](C)(O)C5)nc(OCC56CC5CN(C)C6)nc4c3F)c12 (stereo partly drawn) [Example 827, (3R)-1-(7-(8-ethyl-7-fluoro-3-hydroxynaphthalen-1-yl)-8-fluoro-2-((3-methyl-3-azabicyclo[3.1.0]hexan-1-yl)methoxy)pyrido[4,3-d]pyrimidin-4-yl)-3-methylpiperidin-3-ol] | < 2 nM | 3 nM | < 2 nM | 41 nM | > 10000 nM | 67 nM | 242 nM | 159 nM | 92 nM | 180 nM | 68 nM |
| CCc1c(F)ccc2cc(O)cc(-c3ncc4c(N5CC6CCC(COC(=O)N(C)C)(C6)C5)nc(OC[C@@]56CCCN5C[C@H](F)C6)nc4c3F)c12 (stereo partly drawn) [Example 892, (3-(7-(8-ethyl-7-fluoro-3-hydroxynaphthalen-1-yl)-8-fluoro-2-(((2R,7aS)-2-fluorotetrahydro-1H-pyrrolizin-7a(5H)-yl)methoxy)pyrido[4,3-d]pyrimidin-4-yl)-3-azabicyclo[3.2.1]octan-1-yl)methyl dimethylcarbamate] | 120 nM | 26 nM | 26 nM | 174 nM | > 10000 nM | 2180 nM | 1630 nM | 2140 nM | 382 nM | 992 nM | 960 nM |
| CCc1c(F)ccc2cc(O)cc(-c3ncc4c(N5CCC[C@@](C)(O)C5)nc(OCC56CCCN5CC(=C(F)F)C6)nc4c3F)c12 (stereo partly drawn) [Example 792, (3R)-1-(2-((2-(difluoromethylene)tetrahydro-1H-pyrrolizin-7a(5H)-yl)methoxy)-7-(8-ethyl-7-fluoro-3-hydroxynaphthalen-1-yl)-8-fluoropyrido[4,3-d]pyrimidin-4-yl)-3-methylpiperidin-3-ol] | 2 nM | 2 nM | < 2 nM | 2 nM | 744 nM | 4 nM | 32 nM | 9 nM | 4 nM | 13 nM | 8 nM |
| CCc1c(F)ccc2cc(O)cc(-c3ncc4c(N5CC6CCC(COC)(C6)C5)nc(OC[C@@]56CCCN5C[C@H](F)C6)nc4c3F)c12 (stereo partly drawn) [Example 891, 5-ethyl-6-fluoro-4-(8-fluoro-2-(((2R,7aS)-2-fluorotetrahydro-1H-pyrrolizin-7a(5H)-yl)methoxy)-4-(1-(methoxymethyl)-3-azabicyclo[3.2.1]octan-3-yl)pyrido[4,3-d]pyrimidin-7-yl)naphthalen-2-ol] | 22 nM | 9 nM | 6 nM | 73 nM | > 10000 nM | 621 nM | 295 nM | 658 nM | 150 nM | 568 nM | 382 nM |
| CCc1c(F)ccc2cc(O)cc(-c3ncc4c(N5CC6CCC(C5)C6C)nc(OC[C@@]56CCCN5C[C@H](F)C6)nc4c3F)c12 (stereo partly drawn) [Example 862, 5-ethyl-6-fluoro-4-(8-fluoro-2-(((2R,7aS)-2-fluorohexahydro-1H-pyrrolizin-7a-yl)methoxy)-4-((1R,5S,8S)-8-methyl-3-azabicyclo[3.2.1]octan-3-yl)pyrido[4,3-d]pyrimidin-7-yl)naphthalen-2-ol] | 311 nM | 95 nM | 60 nM | 196 nM | > 10000 nM | 6210 nM | 3700 nM | 7210 nM | 1110 nM | 2870 nM | 1680 nM |
| CCc1c(F)ccc2cc(O)cc(-c3ncc4c(N5CCC[C@@](C)(O)C5)nc(OC[C@@]56CCCN5[C@@H](COC)CC6)nc4c3F)c12 [Example 886, (R)-1-(7-(8-ethyl-7-fluoro-3-hydroxynaphthalen-1-yl)-8-fluoro-2-(((3R,7aS)-3-(methoxymethyl)tetrahydro-1H-pyrrolizin-7a(5H)-yl)methoxy)pyrido[4,3-d]pyrimidin-4-yl)-3-methylpiperidin-3-ol] | 2 nM | 4 nM | 2 nM | 22 nM | 2560 nM | 40 nM | 135 nM | 73 nM | 27 nM | 59 nM | 18 nM |
| CCOC[C@@H]1CC[C@]2(COc3nc(N4CCC[C@@](C)(O)C4)c4cnc(-c5cc(O)cc6ccc(F)c(CC)c56)c(F)c4n3)CCCN12 [Example 853, (R)-1-(2-(((3S,7aS)-3-(ethoxymethyl)tetrahydro-1H-pyrrolizin-7a(5H)-yl)methoxy)-7-(8-ethyl-7-fluoro-3-hydroxynaphthalen-1-yl)-8-fluoropyrido[4,3-d]pyrimidin-4-yl)-3-methylpiperidin-3-ol] | < 2 nM | < 2 nM | < 2 nM | 1 nM | 1070 nM | 33 nM | 67 nM | 39 nM | 23 nM | 36 nM | 10 nM |
